Paper PMC9017349, “Spiropyrimidinetriones: a Class of DNA Gyrase Inhibitors with Activity against Mycobacterium tuberculosis and without Cross-Resistance to Fluoroquinolones” (Antimicrobial Agents and Chemotherapy, 2022)
Values after ≈ are worked out from the molar mass of the structure shown.

Key:
M. tuberculosis H37Rv [1] = assay: MIC against M. tuberculosis H37Rv in 7H9 medium with various supplements; type: cell-based, Mycobacterium tuberculosis; conditions: for fold more active than zoliflodacin against M. tuberculosis: H37Rv, across the MIC media; for MIC: Mycobacterium tuberculosis, H37RV
M. tuberculosis H37Rv [2] = assay: microbe, parasite or virus in culture; type: cell-based; conditions: Mycobacterium tuberculosis, read-out: MIC90, H37Rv
M. tuberculosis H37Rv [3] = assay: microbe, parasite or virus in culture; type: cell-based; conditions: for MBC relative to MIC / MBC: CARA; for MIC / MBC: Mycobacterium tuberculosis, 168 h; for MIC: H37Rv, 7 days, Middlebrook 7H9 with OADC and glycerol, read-out: MIC (dose-response); for MBC: H37RV, transfer to charcoal agar, additional 7 days
[4] = system: recA promoter reporter in M. tuberculosis H37Rv; type: cell-based, Mycobacterium tuberculosis; conditions: over 7 days
H37Rv (RecA) = type: cell-based, Mycobacterium tuberculosis
[5] = system: iniB promoter reporter in M. tuberculosis H37Rv; type: cell-based, Mycobacterium tuberculosis
[6] = system: M. tuberculosis Erdman pFCA-LuxAB (Erdman Lux); conditions: BALB/c mice, 100 mg/kg p.o. daily, 12 days
Mtb = type: in vivo; conditions: 100 mg/kg, day 21; limit 1.57 log10 CFU
[7] = read-out: MIC, DPPC/Chol/BSA/TX

Structure (SMILES) | MIC (M. tuberculosis H37Rv [1]; read-out: MIC, ADC/GLU/TW) | MIC (M. tuberculosis H37Rv [1]; read-out: MIC, DPPC/CAS/TX) | MIC (M. tuberculosis H37Rv [1]; [7]) | MIC (M. tuberculosis H37Rv [1]; read-out: MIC, GLU/BSA/TX) | MIC (M. tuberculosis H37Rv [1]; read-out: MIC, GLU/CAS/TX) | further results
C[C@@H]1CN2c3c(cc4c(-n5ncnc5NCCO)noc4c3F)CC3(C(=O)NC(=O)NC3=O)[C@H]2[C@H](C)O1 [Compound 14] | 0.24 µM (≈ 0.123 µg/mL) | 1.6 µM (≈ 0.823 µg/mL) | 1.2 µM (≈ 0.617 µg/mL) | 1.2 µM (≈ 0.617 µg/mL) | 0.6 µM (≈ 0.309 µg/mL) | fold more active than zoliflodacin against M. tuberculosis (M. tuberculosis H37Rv [1]): 16 fold
C[C@@H]1CN2c3c(cc4c(-n5ncnc5NCCN(C)C)noc4c3F)CC3(C(=O)NC(=O)NC3=O)[C@H]2[C@H](C)O1 [Compound 15] | 2 µM (≈ 1.08 µg/mL) | 1.6 µM (≈ 0.866 µg/mL) | 3.1 µM (≈ 1.68 µg/mL) | 1.6 µM (≈ 0.866 µg/mL) | 2.3 µM (≈ 1.25 µg/mL) | –
CC1CN2c3c(cc4c(N5CC(CO)OC5=O)noc4c3Cl)CC3(C(=O)NC(=O)NC3=O)C2C(C)O1 (stereo not drawn) [Compound 3] | 2 µM (≈ 1.04 µg/mL) | 6.2 µM (≈ 3.22 µg/mL) | 4.7 µM (≈ 2.44 µg/mL) | 4.7 µM (≈ 2.44 µg/mL) | 2.3 µM (≈ 1.2 µg/mL) | –
C[C@@H]1CN2c3c(cc4c(-n5ncnc5N5CCOC[C@H]5C)noc4c3F)CC3(C(=O)NC(=O)NC3=O)[C@H]2[C@H](C)O1 [Compound 19] | 16 µM (≈ 8.87 µg/mL) | > 50 µM | > 50 µM | > 50 µM | > 50 µM | –
CC1CN2c3c(cc4c(N5C(=O)OC6COCC65)noc4c3F)CC3(C(=O)NC(=O)NC3=O)C2C(C)O1 (stereo not drawn) [Compound 6] | 0.98 µM (≈ 0.505 µg/mL) | 4.7 µM (≈ 2.42 µg/mL) | 2.3 µM (≈ 1.19 µg/mL) | 3.1 µM (≈ 1.6 µg/mL) | 1.6 µM (≈ 0.825 µg/mL) | –
C[C@@H]1CN2c3c(cc4c(C5=N[C@H]6COC[C@H]6N5)noc4c3F)CC3(C(=O)NC(=O)NC3=O)[C@H]2[C@H](C)O1 [Compound 21] | 3.4 µM (≈ 1.69 µg/mL) | 9.4 µM (≈ 4.69 µg/mL) | 9.4 µM (≈ 4.69 µg/mL) | 6.2 µM (≈ 3.09 µg/mL) | 6.2 µM (≈ 3.09 µg/mL) | –
CC1CN2c3c(cc4c(N5C(=O)OCC5CCCO)noc4c3Cl)CC3(C(=O)NC(=O)NC3=O)C2C(C)O1 (stereo not drawn) [Compound 4] | 4.8 µM (≈ 2.63 µg/mL) | 12 µM (≈ 6.58 µg/mL) | 12 µM (≈ 6.58 µg/mL) | 12 µM (≈ 6.58 µg/mL) | 9.4 µM (≈ 5.15 µg/mL) | –
CC1CN2c3c(cc4c(N5CC(c6ccccn6)OC5=O)noc4c3F)CC3(C(=O)NC(=O)NC3=O)C2C(C)O1 (stereo not drawn) [Compound 12] | > 50 µM | > 50 µM | > 50 µM | > 50 µM | > 50 µM | –
CNc1ncnn1-c1noc2c(F)c3c(cc12)CC1(C(=O)NC(=O)NC1=O)[C@H]1[C@H](C)O[C@H](C)CN31 [Compound 17] | 0.9 µM (≈ 0.436 µg/mL) | 6.2 µM (≈ 3 µg/mL) | 6.2 µM (≈ 3 µg/mL) | 9.4 µM (≈ 4.55 µg/mL) | 3.1 µM (≈ 1.5 µg/mL) | –
CC(C)=CCC/C(C)=C/CNCCNC1C2CC3CC(C2)CC1C3 (stereo not drawn) [SQ109] | – | – | – | – | – | MIC90 (M. tuberculosis H37Rv [2]): 0.49 µM (≈ 0.162 µg/mL)
C[C@@H]1CN2c3c(cc4c(-n5cncn5)noc4c3Cl)CC3(C(=O)NC(=O)NC3=O)[C@H]2[C@H](C)O1 [Compound 18] | 0.49 µM (≈ 0.231 µg/mL) | 3.1 µM (≈ 1.46 µg/mL) | 1.6 µM (≈ 0.755 µg/mL) | 1.6 µM (≈ 0.755 µg/mL) | 0.78 µM (≈ 0.368 µg/mL) | –
CC1CN2c3c(cc4c(N5C(=O)OCC5CO)noc4c3F)CC3(C(=O)NC(=O)NC3=O)C2C(C)O1 (stereo not drawn) [Compound 2] | 2 µM (≈ 1.01 µg/mL) | 6.2 µM (≈ 3.12 µg/mL) | 4.7 µM (≈ 2.37 µg/mL) | 6.2 µM (≈ 3.12 µg/mL) | 3.1 µM (≈ 1.56 µg/mL) | –
C[C@@H]1CN(c2noc3c(F)c4c(cc23)CC2(C(=O)NC(=O)NC2=O)[C@H]2[C@H](C)O[C@H](C)CN42)C(=O)O1 [Compound 5] | 2 µM (≈ 0.975 µg/mL) | 12 µM (≈ 5.85 µg/mL) | 6.2 µM (≈ 3.02 µg/mL) | 9.4 µM (≈ 4.58 µg/mL) | 4.7 µM (≈ 2.29 µg/mL) | fold more active than zoliflodacin against M. tuberculosis (M. tuberculosis H37Rv [1]): about 2 fold
CC(=O)NC[C@H]1CN(c2ccc(N3CCOCC3)c(F)c2)C(=O)O1 [Linezolid, linezolid] | – | – | – | – | – | MBC relative to MIC (M. tuberculosis H37Rv [3]): greater than 4 fold; MIC (M. tuberculosis H37Rv [3]): 1.51 µM (≈ 0.509 µg/mL); MBC (M. tuberculosis H37Rv [3]): 7.8 µM (≈ 2.63 µg/mL)
NNC(=O)c1ccncc1 [Isoniazid, isoniazid] | – | – | – | – | – | bioluminescence response in PrecA-LUX assay [4]: did not elicit significant luminescence; PrecA-LUX MIC (H37Rv (RecA)): ~ 7 μM; bioluminescence response in PiniB-LUX assay [5]: strong signal; MIC90 (M. tuberculosis H37Rv [2]): 3.95 µM (≈ 0.542 µg/mL); MBC relative to MIC (M. tuberculosis H37Rv [3]): less than 4 fold; MIC (M. tuberculosis H37Rv [3]): 4.61 µM (≈ 0.632 µg/mL); MBC (M. tuberculosis H37Rv [3]): 3.9 µM (≈ 0.535 µg/mL)
CC[C@@H](CO)NCCN[C@@H](CC)CO [Ethambutol, ethambutol, reference compound] | – | – | – | – | – | CFU decline in lung burdens relative to the untreated controls [6]: 2.6 log10 CFU; n, number of mice showing viable bacteria above the lower limit of detection/total number of animals tested (Mtb): 5/5
CC1CN2c3c(cc4c(N5C(=O)OC6COCCC65)noc4c3F)CC3(C(=O)NC(=O)NC3=O)C2C(C)O1 (stereo not drawn) [Compound 10] | 3.9 µM (≈ 2.06 µg/mL) | 12 µM (≈ 6.35 µg/mL) | 12 µM (≈ 6.35 µg/mL) | 12 µM (≈ 6.35 µg/mL) | 6.2 µM (≈ 3.28 µg/mL) | –
CC1CN2c3c(cc4c(N5C(=O)OC6CCOCC65)noc4c3F)CC3(C(=O)NC(=O)NC3=O)C2C(C)O1 (stereo not drawn) [Compound 13] | 1.9 µM (≈ 1.01 µg/mL) | 12 µM (≈ 6.35 µg/mL) | 4.7 µM (≈ 2.49 µg/mL) | 6.2 µM (≈ 3.28 µg/mL) | 4.7 µM (≈ 2.49 µg/mL) | –
COCC1[C@@H](C)OC(=O)N1c1noc2c(F)c3c(cc12)CC1(C(=O)NC(=O)NC1=O)[C@H]1[C@H](C)O[C@H](C)CN31 (stereo partly drawn) [Compound 11] | 31 µM (≈ 16.5 µg/mL) | > 50 µM | > 50 µM | > 50 µM | > 50 µM | –
CC1CN2c3c(cc4c(N5C(=O)OC(C)C5C)noc4c3F)CC3(C(=O)NC(=O)NC3=O)C2C(C)O1 (stereo not drawn) [Compound 7] | 3.9 µM (≈ 1.96 µg/mL) | 37 µM (≈ 18.6 µg/mL) | 19 µM (≈ 9.53 µg/mL) | 25 µM (≈ 12.5 µg/mL) | 12 µM (≈ 6.02 µg/mL) | –
C[C@@H]1CN2c3c(cc4c(C5=N[C@H](C)[C@@H](C)N5)noc4c3F)CC3(C(=O)NC(=O)NC3=O)[C@H]2[C@H](C)O1 [Compound 20] | 5.5 µM (≈ 2.66 µg/mL) | 6.2 µM (≈ 3 µg/mL) | 6.2 µM (≈ 3 µg/mL) | 4.7 µM (≈ 2.28 µg/mL) | 3.1 µM (≈ 1.5 µg/mL) | –
CC1CN2c3c(cc4c(N5C(=O)OCC5c5ncnn5C)noc4c3F)CC3(C(=O)NC(=O)NC3=O)C2C(C)O1 (stereo not drawn) [Compound 9] | 16 µM (≈ 8.87 µg/mL) | > 50 µM | > 50 µM | > 50 µM | 37 µM (≈ 20.5 µg/mL) | –
C[C@H]1COc2c(N3CCN(C)CC3)c(F)cc3c(=O)c(C(=O)O)cn1c23 [Levofloxacin] | – | – | – | – | – | MIC90 (M. tuberculosis H37Rv [2]): 0.49 µM (≈ 0.177 µg/mL)
CC1CN2c3c(cc4c(N5C(=O)OCC5CCO)noc4c3F)CC3(C(=O)NC(=O)NC3=O)C2C(C)O1 (stereo not drawn) [Compound 1] | 3.9 µM (≈ 2.02 µg/mL) | 6.2 µM (≈ 3.21 µg/mL) | 9.4 µM (≈ 4.86 µg/mL) | 9.4 µM (≈ 4.86 µg/mL) | 4.7 µM (≈ 2.43 µg/mL) | –
CC(=O)NCC1CN(c2cc3c(c(F)c2F)N2C[C@H](C)O[C@H](C)[C@H]2C2(C3)C(=O)NC(=O)NC2=O)C(=O)O1 (stereo partly drawn) [Compound 24] | > 50 µM | > 50 µM | > 50 µM | > 50 µM | > 50 µM | activity in the M. tuberculosis MIC assays (M. tuberculosis H37Rv [1]; any of the MIC media): did not show activity at the highest concentration tested
COc1ncnn1-c1noc2c(F)c3c(cc12)CC1(C(=O)NC(=O)NC1=O)[C@H]1[C@H](C)O[C@H](C)CN31 [Compound 16] | 2 µM (≈ 0.971 µg/mL) | 12 µM (≈ 5.83 µg/mL) | 9.4 µM (≈ 4.56 µg/mL) | 12 µM (≈ 5.83 µg/mL) | 9.4 µM (≈ 4.56 µg/mL) | –
COCC1COC(=O)N1c1noc2c(F)c3c(cc12)CC1(C(=O)NC(=O)NC1=O)C1C(C)OC(C)CN31 (stereo not drawn) [Compound 8] | 7.8 µM (≈ 4.04 µg/mL) | 25 µM (≈ 12.9 µg/mL) | 12 µM (≈ 6.21 µg/mL) | 25 µM (≈ 12.9 µg/mL) | 19 µM (≈ 9.83 µg/mL) | –
C[C@@H]1CN2c3c(cc4c(N5CCN(C)C5=O)noc4c3F)CC3(C(=O)NC(=O)NC3=O)[C@H]2[C@H](C)O1 [Compound 23] | 4.3 µM (≈ 2.09 µg/mL) | 37 µM (≈ 18 µg/mL) | 12 µM (≈ 5.84 µg/mL) | 19 µM (≈ 9.24 µg/mL) | 6.2 µM (≈ 3.02 µg/mL) | –
